# In patent publication US11629171B2, “Beta-hairpin peptidomimetics” (POLYPHOR AG, priority 2017, dated 2023):
# Where a SMILES comes first, the peptide text is derived from it. Bridges are numbered along the chain shown (N, C = ends). Roman numbers before positions name the chains, in order. [ ]: non-standard residue; d: D form. dDab = NCC[C@@H](N)C(=O)O; Nle = CCCC[C@H](N)C(=O)O; Dab = NCC[C@H](N)C(=O)O; Dap = NC[C@H](N)C(=O)O
# Columns and labels:
# Assay type in all cases: cell-based
# [1] = test system: Escherichia coli ATCC 25922; settings: ATCC 25922
# Method in brief: (§1)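 CLSI broth microdilution in cation-adjusted Mueller-Hinton II broth with 0.002% polysorbate 80 (final), inoculum appr. 10^6 CFU/mL, peptides in serial two-fold dilutions. MIC (μg/mL) is the lowest concentration without visible growth after 18-20 h at 35° C.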
# [2] = test system: Escherichia coli 926415; settings: 926415
# Method in brief: as §1
# [3] = test system: Acinetobacter baumannii 872842; settings: 872842
# Method in brief: as §1
# [4] = test system: Klebsiella pneumoniae 968733; settings: 968733
# Method in brief: as §1
# [5] = test system: Pseudomonas aeruginosa ATCC 27853; settings: ATCC 27853
# Method in brief: as §1
# [6] = test system: Acinetobacter baumannii DSM 30008; settings: DSM 30008
# Method in brief: as §1
# [7] = test system: Klebsiella pneumoniae SSI #3010; settings: SSI #3010
# Method in brief: as §1
# [8] = test system: Enterobacter cloacae 848840; settings: 848840
# Method in brief: as §1
# [9] = test system: human red blood cells (hRBC); test: Hemolysis; settings: red cells of human, 1 h, 200
# Method in brief: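 Washed fresh human RBC (20% v/v) incubated with peptide at 200 μg/mL for 1 h at 37° C with shaking. Supernatant OD540 measured after dilution, blank corrected; percent hemolysis = OD540 peptide / OD540 of 2% Triton X-100 lysis × 100, PBS with 10% water as 0%.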
Escherichia coli ATCC 25922 MIC [1] [µg/mL],MIC [2] [µg/mL],MIC [3] [µg/mL],MIC [4] [µg/mL],Pseudomonas aeruginosa ATCC 27853 MIC [5] [µg/mL],Acinetobacter baumannii DSM 30008 MIC [6] [µg/mL],Klebsiella pneumoniae SSI #3010 MIC [7] [µg/mL],MIC [8] [µg/mL],SMILES,Hemolysis at 200 μg/mL [9] [%]
0.0625,0.125,0.125,0.5,0.125,0.0625,0.0625,0.0625,"CCCC[C@@H]1NC(=O)[C@H](CO)NC(=O)[C@H](Cc2c[nH]c3ccccc23)NC(=O)[C@H](CO)NC(=O)[C@@H](CCN)NC(=O)[C@H](CCC(=O)N[C@@H](CCN)C(=O)N[C@H](C(=O)N[C@@H](CN)C(=O)N[C@H]2CCNC(=O)[C@H]([C@@H](C)O)NC(=O)[C@H](CCN)NC(=O)[C@H](CCN)NC(=O)[C@H](CC(C)C)NC(=O)[C@@H](CC(C)C)NC(=O)[C@H](CCN)NC2=O)[C@@H](C)O)NC(=O)[C@H](CCN)NC(=O)[C@H](Cc2ccc(O)cc2)NC(=O)[C@@H](NC(=O)[C@@H](NC(C)=O)C(C)C)CCNC(=O)C[C@@H](C(=O)N[C@@H](CO)C(N)=O)NC1=O [Ex. 325] (I: Ac-V[Dab]Y[Dab]E[dDab]SWS[Nle]DS-NH2 / II: [Dab]T[Dap][Dab][Dab][dL]L[Dab][Dab]T; lactam I:2-I:11, II:4-II:C; amide I:5-II:N)",<1
0.0625,0.125,0.125,0.5,0.0625,0.0625,0.0625,0.0625,"CCCC[C@@H]1NC(=O)[C@H](CO)NC(=O)[C@H](Cc2c[nH]c3ccccc23)NC(=O)[C@H](CO)NC(=O)[C@@H](CCN)NC(=O)[C@H](CCC(=O)N[C@@H](CCN)C(=O)N[C@H](C(=O)N[C@@H](CN)C(=O)N[C@H]2CCNC(=O)[C@H]([C@@H](C)O)NC(=O)[C@H](CCN)NC(=O)[C@H](CCN)NC(=O)[C@H](CC(C)C)NC(=O)[C@@H](CC(C)C)NC(=O)[C@H](CCN)NC2=O)[C@@H](C)O)NC(=O)[C@H](CCN)NC(=O)[C@H](Cc2ccc(O)cc2)NC(=O)[C@@H](NC(=O)[C@@H](NC(C)=O)C(C)C)CCNC(=O)CC[C@@H](C(=O)N[C@@H](CO)C(N)=O)NC1=O [Ex. 326] (I: Ac-V[Dab]Y[Dab]E[dDab]SWS[Nle]ES-NH2 / II: [Dab]T[Dap][Dab][Dab][dL]L[Dab][Dab]T; lactam I:2-I:11, II:4-II:C; amide I:5-II:N)",<1
0.0625,0.25,0.125,0.5,0.125,0.0625,0.0625,0.125,"CC(=O)N[C@H](C(=O)N[C@H]1CCNC(=O)CC[C@@H](C(=O)N[C@@H](CO)C(N)=O)NC(=O)[C@H](CC(C)C)NC(=O)[C@H](CO)NC(=O)[C@H](Cc2c[nH]c3ccccc23)NC(=O)[C@H](CO)NC(=O)[C@@H](CCN)NC(=O)[C@H](CCC(=O)N[C@@H](CCN)C(=O)N[C@H](C(=O)N[C@@H](CN)C(=O)N[C@H]2CCNC(=O)[C@H]([C@@H](C)O)NC(=O)[C@H](CCN)NC(=O)[C@H](CCN)NC(=O)[C@H](CC(C)C)NC(=O)[C@@H](CC(C)C)NC(=O)[C@H](CCN)NC2=O)[C@@H](C)O)NC(=O)[C@H](CCN)NC(=O)[C@H](Cc2ccc(O)cc2)NC1=O)C(C)C [Ex. 327] (I: Ac-V[Dab]Y[Dab]E[dDab]SWSLES-NH2 / II: [Dab]T[Dap][Dab][Dab][dL]L[Dab][Dab]T; lactam I:2-I:11, II:4-II:C; amide I:5-II:N)",<1
0.01562,0.125,0.0625,0.25,0.0625,0.01562,0.125,0.0625,CC(=O)N[C@H](C(=O)N[C@H]1CSSC[C@@H](C(=O)N[C@@H](CO)C(N)=O)NC(=O)[C@H](C(C)C)NC(=O)[C@H](CO)NC(=O)[C@H](Cc2c[nH]c3ccccc23)NC(=O)[C@H](CO)NC(=O)[C@@H](CCN)NC(=O)[C@H](CCC(=O)N[C@@H](CCN)C(=O)N[C@H](C(=O)N[C@@H](CN)C(=O)N[C@H]2CCNC(=O)[C@H]([C@@H](C)O)NC(=O)[C@H](CCN)NC(=O)[C@H](CCN)NC(=O)[C@H](CC(C)C)NC(=O)[C@@H](CC(C)C)NC(=O)[C@H](CCN)NC2=O)[C@@H](C)O)NC(=O)[C@H](Cc2c[nH]cn2)NC(=O)[C@H](Cc2ccc(O)cc2)NC1=O)C(C)C [Ex. 328] (I: Ac-VCYHE[dDab]SWSVCS-NH2 / II: [Dab]T[Dap][Dab][Dab][dL]L[Dab][Dab]T; disulfide I:2-I:11; amide I:5-II:N; lactam II:4-II:C),1
0.0625,0.125,0.125,0.25,0.125,0.0625,0.125,0.125,CC(=O)N[C@H](C(=O)N[C@H]1CSSC[C@@H](C(=O)N[C@@H](CO)C(N)=O)NC(=O)[C@H](C(C)C)NC(=O)[C@H](Cc2c[nH]cn2)NC(=O)[C@H](Cc2c[nH]c3ccccc23)NC(=O)[C@H](CO)NC(=O)[C@@H](CCN)NC(=O)[C@H](CCC(=O)N[C@@H](CCN)C(=O)N[C@H](C(=O)N[C@@H](CN)C(=O)N[C@H]2CCNC(=O)[C@H]([C@@H](C)O)NC(=O)[C@H](CCN)NC(=O)[C@H](CCN)NC(=O)[C@H](CC(C)C)NC(=O)[C@@H](CC(C)C)NC(=O)[C@H](CCN)NC2=O)[C@@H](C)O)NC(=O)[C@H](CCN)NC(=O)[C@H](Cc2ccc(O)cc2)NC1=O)C(C)C [Ex. 329] (I: Ac-VCY[Dab]E[dDab]SWHVCS-NH2 / II: [Dab]T[Dap][Dab][Dab][dL]L[Dab][Dab]T; disulfide I:2-I:11; amide I:5-II:N; lactam II:4-II:C),<1
0.0625,0.25,1,2,0.25,0.25,0.0625,0.125,CC(=O)N[C@@H](CC(C)C)C(=O)N[C@H]1CSSC[C@@H](C(=O)N[C@@H](CO)C(N)=O)NC(=O)[C@H](C(C)C)NC(=O)[C@H](CCN)NC(=O)[C@H](Cc2c[nH]c3ccccc23)NC(=O)[C@H](CO)NC(=O)[C@@H](CCN)NC(=O)[C@H](CCC(=O)N[C@@H](CCN)C(=O)N[C@H](C(=O)N[C@@H](CN)C(=O)N[C@H]2CCNC(=O)[C@H]([C@@H](C)O)NC(=O)[C@H](CCN)NC(=O)[C@H](CCN)NC(=O)[C@H](CC(C)C)NC(=O)[C@@H](CC(C)C)NC(=O)[C@H](CCN)NC2=O)[C@@H](C)O)NC(=O)[C@H](CCN)NC(=O)[C@H](Cc2ccc(O)cc2)NC1=O [Ex. 330] (I: Ac-LCY[Dab]E[dDab]SW[Dab]VCS-NH2 / II: [Dab]T[Dap][Dab][Dab][dL]L[Dab][Dab]T; disulfide I:2-I:11; amide I:5-II:N; lactam II:4-II:C),1
0.0625,0.25,0.125,0.5,0.125,0.0625,0.0625,0.125,"CC(=O)N[C@H](C(=O)N[C@H]1CCNC(=O)C[C@@H](C(=O)N[C@@H](CO)C(N)=O)NC(=O)[C@H](C(C)C)NC(=O)[C@H](CO)NC(=O)[C@H](Cc2c[nH]c3ccccc23)NC(=O)CNC(=O)[C@@H](CCN)NC(=O)[C@H](CCC(=O)N[C@@H](CCN)C(=O)N[C@H](C(=O)N[C@@H](CN)C(=O)N[C@H]2CCNC(=O)[C@H]([C@@H](C)O)NC(=O)[C@H](CCN)NC(=O)[C@H](CCN)NC(=O)[C@H](CC(C)C)NC(=O)[C@@H](CC(C)C)NC(=O)[C@H](CCN)NC2=O)[C@@H](C)O)NC(=O)[C@H](CN)NC(=O)[C@H](Cc2ccc(O)cc2)NC1=O)C(C)C [Ex. 346] (I: Ac-V[Dab]Y[Dap]E[dDab]GWSVDS-NH2 / II: [Dab]T[Dap][Dab][Dab][dL]L[Dab][Dab]T; lactam I:2-I:11, II:4-II:C; amide I:5-II:N)",<1
